#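 Here, GI50 denotes the concentration required for 50% inhibition of growth. TGI is the concentration that stops growth completely.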
# Tests used:
# Assay in all cases: NCI anticancer screen, dose series, 384-well format
# NCI-H522 lung = tested on: NCI-H522 lung
# MDA-MB-468 breast = tested on: MDA-MB-468 breast
# SNB-19 CNS = tested on: SNB-19 CNS
# UACC-257 melanoma = tested on: UACC-257 melanoma
# NCI-H23 lung = tested on: NCI-H23 lung
# SK-MEL-5 melanoma = tested on: SK-MEL-5 melanoma
# SF-295 CNS = tested on: SF-295 CNS
# ACHN renal = tested on: ACHN renal
# RPMI-8226 leukemia = tested on: RPMI-8226 leukemia
# HOP-62 NSCLC = tested on: HOP-62 NSCLC
# BT-549 breast = tested on: BT-549 breast
# SK-MEL-28 melanoma = tested on: SK-MEL-28 melanoma
# HS 578T breast = tested on: HS 578T breast
# K-562 leukemia = tested on: K-562 leukemia
# NCI/ADR-RES ovarian = tested on: NCI/ADR-RES ovarian
# OVCAR-8 ovarian = tested on: OVCAR-8 ovarian
# HCT-15 colon = tested on: HCT-15 colon
# SW-620 colon = tested on: SW-620 colon
# HCC-2998 colon = tested on: HCC-2998 colon
# U251 glioblastoma = tested on: U251 glioblastoma
# MOLT-4 leukemia = tested on: MOLT-4 leukemia
# HOP-92 NSCLC = tested on: HOP-92 NSCLC
# IGROV1 ovarian = tested on: IGROV1 ovarian
# OVCAR-4 ovarian = tested on: OVCAR-4 ovarian
# T-47D breast = tested on: T-47D breast
# KM12 colon = tested on: KM12 colon
# A549 NSCLC = tested on: A549 NSCLC
# 786-0 renal = tested on: 786-0 renal
# MALME-3M melanoma = tested on: MALME-3M melanoma
# MCF7 breast = tested on: MCF7 breast
# HT29 colon = tested on: HT29 colon
# MDA-MB-435 melanoma = tested on: MDA-MB-435 melanoma
# SR leukemia = tested on: SR leukemia
# SF-268 CNS = tested on: SF-268 CNS
# PC-3 prostate = tested on: PC-3 prostate
# M14 melanoma = tested on: M14 melanoma
# SNB-75 CNS = tested on: SNB-75 CNS
# A498 renal = tested on: A498 renal
# EKVX NSCLC = tested on: EKVX NSCLC
# DU-145 prostate = tested on: DU-145 prostate
# NCI-H226 lung = tested on: NCI-H226 lung
# SF-539 CNS = tested on: SF-539 CNS
# HL-60(TB) leukemia = tested on: HL-60(TB) leukemia
# COLO 205 colon = tested on: COLO 205 colon
# NCI-H460 NSCLC = tested on: NCI-H460 NSCLC
# CAKI-1 renal = tested on: CAKI-1 renal
# SK-OV-3 ovarian = tested on: SK-OV-3 ovarian
# HCT-116 colon = tested on: HCT-116 colon
# SN12C renal = tested on: SN12C renal
# RXF 393 renal = tested on: RXF 393 renal
# NCI-H322M lung = tested on: NCI-H322M lung
# CCRF-CEM leukemia = tested on: CCRF-CEM leukemia
# OVCAR-3 ovarian = tested on: OVCAR-3 ovarian
# MDA-MB-231 breast = tested on: MDA-MB-231 breast
# TK-10 renal = tested on: TK-10 renal
# LOX IMVI melanoma = tested on: LOX IMVI melanoma
structure (smiles),measurement,setting,value
Nc1ccccc1NC(=O)c1ccc(CNc2nccc(-c3cccnc3)n2)cc1,GI50,NCI-H522 lung,301 nM
same,TGI,NCI-H522 lung,1390 nM
same,GI50,MDA-MB-468 breast,234 nM
same,TGI,MDA-MB-468 breast,592 nM
same,GI50,SNB-19 CNS,740 nM
same,TGI,SNB-19 CNS,2540 nM
same,GI50,UACC-257 melanoma,169 nM
same,TGI,UACC-257 melanoma,344 nM
same,GI50,NCI-H23 lung,248 nM
same,TGI,NCI-H23 lung,1320 nM
same,GI50,SK-MEL-5 melanoma,196 nM
same,TGI,SK-MEL-5 melanoma,359 nM
same,GI50,SF-295 CNS,159 nM
same,TGI,SF-295 CNS,306 nM
same,GI50,ACHN renal,348 nM
same,TGI,ACHN renal,1200 nM
same,GI50,RPMI-8226 leukemia,28.2 nM
same,TGI,RPMI-8226 leukemia,75.2 nM
same,GI50,HOP-62 NSCLC,255 nM
same,TGI,HOP-62 NSCLC,1260 nM
same,GI50,BT-549 breast,497 nM
same,TGI,BT-549 breast,2390 nM
same,GI50,SK-MEL-28 melanoma,190 nM
same,TGI,SK-MEL-28 melanoma,368 nM
same,GI50,HS 578T breast,217 nM
same,TGI,HS 578T breast,498 nM
same,GI50,K-562 leukemia,120 nM
same,TGI,K-562 leukemia,357 nM
same,GI50,NCI/ADR-RES ovarian,332 nM
same,TGI,NCI/ADR-RES ovarian,1270 nM
same,GI50,OVCAR-8 ovarian,242 nM
same,TGI,OVCAR-8 ovarian,1180 nM
same,GI50,HCT-15 colon,336 nM
same,TGI,HCT-15 colon,1310 nM
same,GI50,SW-620 colon,208 nM
same,TGI,SW-620 colon,657 nM
same,GI50,HCC-2998 colon,342 nM
same,TGI,HCC-2998 colon,1200 nM
same,GI50,U251 glioblastoma,159 nM
same,TGI,U251 glioblastoma,333 nM
same,GI50,MOLT-4 leukemia,150 nM
same,TGI,MOLT-4 leukemia,285 nM
same,GI50,HOP-92 NSCLC,219 nM
same,TGI,HOP-92 NSCLC,823 nM
same,GI50,IGROV1 ovarian,235 nM
same,TGI,IGROV1 ovarian,808 nM
same,GI50,OVCAR-4 ovarian,371 nM
same,TGI,OVCAR-4 ovarian,1670 nM
same,GI50,T-47D breast,198 nM
same,TGI,T-47D breast,409 nM
same,GI50,KM12 colon,400 nM
same,TGI,KM12 colon,3.85 µM
same,GI50,A549 NSCLC,621 nM
same,TGI,A549 NSCLC,2370 nM
same,GI50,786-0 renal,390 nM
same,TGI,786-0 renal,2360 nM
same,GI50,MALME-3M melanoma,150 nM
same,TGI,MALME-3M melanoma,298 nM
same,GI50,MCF7 breast,213 nM
same,TGI,MCF7 breast,1090 nM
same,GI50,HT29 colon,285 nM
same,TGI,HT29 colon,1120 nM
same,GI50,MDA-MB-435 melanoma,209 nM
same,TGI,MDA-MB-435 melanoma,419 nM
same,GI50,SR leukemia,32.6 nM
same,TGI,SR leukemia,148 nM
same,GI50,SF-268 CNS,225 nM
same,TGI,SF-268 CNS,555 nM
same,GI50,PC-3 prostate,408 nM
same,TGI,PC-3 prostate,8.81 µM
same,GI50,M14 melanoma,456 nM
same,TGI,M14 melanoma,1640 nM
same,GI50,SNB-75 CNS,386 nM
same,TGI,SNB-75 CNS,7.58 µM
same,GI50,A498 renal,261 nM
same,TGI,A498 renal,1110 nM
same,GI50,EKVX NSCLC,766 nM
same,TGI,EKVX NSCLC,18.1 µM
same,GI50,DU-145 prostate,302 nM
same,TGI,DU-145 prostate,1420 nM
same,GI50,NCI-H226 lung,543 nM
same,TGI,NCI-H226 lung,2120 nM
same,GI50,SF-539 CNS,473 nM
same,TGI,SF-539 CNS,2490 nM
same,GI50,HL-60(TB) leukemia,113 nM
same,TGI,HL-60(TB) leukemia,236 nM
same,GI50,COLO 205 colon,292 nM
same,TGI,COLO 205 colon,741 nM
same,GI50,NCI-H460 NSCLC,216 nM
same,TGI,NCI-H460 NSCLC,1300 nM
same,GI50,CAKI-1 renal,318 nM
same,TGI,CAKI-1 renal,1200 nM
same,GI50,SK-OV-3 ovarian,258 nM
same,TGI,SK-OV-3 ovarian,1380 nM
same,GI50,HCT-116 colon,136 nM
same,TGI,HCT-116 colon,350 nM
same,GI50,SN12C renal,593 nM
same,TGI,SN12C renal,1850 nM
same,GI50,RXF 393 renal,114 nM
same,TGI,RXF 393 renal,426 nM
same,GI50,NCI-H322M lung,410 nM
same,TGI,NCI-H322M lung,1790 nM
same,GI50,CCRF-CEM leukemia,131 nM
same,TGI,CCRF-CEM leukemia,266 nM
same,GI50,OVCAR-3 ovarian,374 nM
same,TGI,OVCAR-3 ovarian,1680 nM
same,GI50,MDA-MB-231 breast,371 nM
same,TGI,MDA-MB-231 breast,3.25 µM
same,GI50,TK-10 renal,244 nM
same,TGI,TK-10 renal,1180 nM
same,GI50,LOX IMVI melanoma,175 nM
same,TGI,LOX IMVI melanoma,322 nM

# — PubChem BioAssay (NCI)
